The source made the active and inactive calls. No rule for the calls is given here.
Assay: blockers of mitochondrial fusion, WT vs mutant – cell-based, chemical genetic, wild-type and mutant, confirmation (AID 1361)
Conditions: Cell-based mitochondrial fusion phenotype, imaging
[1] = mutant cells, measured here: mutant cell line IC50

Compound	IC50 (WT cells)	IC50 [1]
CC(C)C(=O)Nc1ccc(C(=O)NNC(=O)CCCOc2ccc(Cl)cc2Cl)cc1	> 25 µM (inactive)	> 25 µM
CCOC(=O)N1CCC(NC(=O)c2cc(-c3ccc(F)cc3)[nH]c2C)CC1	> 25 µM (inactive)	> 25 µM
C=CCOc1c(Br)cc(/C=N/Nc2ccc(C(=O)O)cc2)cc1OCC	22.1 µM	> 25 µM
CCCC[C@@H]1C[C@H]1[C@@H](NC(=O)c1ccco1)c1ccc(Cl)cc1	21.4 µM	> 25 µM
Cc1[nH]c2ccccc2c1/C=N/NC(=O)C1CC1(c1ccccc1)c1ccccc1 (centres undefined)	7.93 µM	> 25 µM
O=C1CCCCC1C(Nc1ccc(Br)cc1)c1ccccc1 (centres undefined)	20.5 µM	> 25 µM
COCCn1c(=S)[nH]c2cc(C(=O)N3CCc4ccccc43)ccc2c1=O	> 25 µM (inactive)	> 25 µM
O=C(NCC(c1cccnc1)N1CCOCC1)c1ccco1 (centres undefined)	> 25 µM (inactive)	> 25 µM
CCOC(=O)Cc1c(Sc2ccccc2)c2cc(C)ccc2n1C	12.3 µM	> 25 µM
COCCN(C(=S)Nc1cccc(C)c1)C(C)c1cccs1 (centres undefined)	23.7 µM	> 25 µM
COC(=O)Nc1snnc1C	> 25 µM (inactive)	> 25 µM
Oc1cccc(C2c3[nH]c4ccccc4c3CCN2Cc2cnn(-c3ccccc3)c2)c1 (centres undefined)	> 25 µM (inactive)	> 25 µM
O=S(Cc1ccc(Br)cc1)Cc1nnc(SCc2ccc(Br)cc2)n1-c1ccccc1 (centres undefined)	13.7 µM	> 25 µM
Clc1ccc(-c2csc3ncnc(N4CCc5ccccc5C4)c23)cc1	10 µM	> 25 µM
Nc1[nH]n2c(=O)c3c(nc2c1N=Nc1ccccc1)CCCC3	> 25 µM (inactive)	> 25 µM
CCn1cc(C(=O)N2CCc3ccccc32)c(=O)c2cc(S(=O)(=O)N(C)C3CCCCC3)ccc21	> 25 µM (inactive)	> 25 µM
CCC(C)c1ccc(NC(=O)COc2c(F)c(F)c(C(F)(F)F)c(F)c2F)cc1 (centres undefined)	8.03 µM	> 25 µM
O=C(N/N=C/c1cccc(F)c1)c1cc(-c2ccco2)nc2ccccc12	> 25 µM (inactive)	> 25 µM
CC#C[C@]1(O)CC[C@H]2[C@@H]3CCC4=CC(=O)CCC4=C3[C@@H](c3ccc(N(C)C)cc3)C[C@@]21C	20.9 µM	> 25 µM
O=C(CCSc1ccc(Cl)cc1)NC12CC3CC(CC(C3)C1)C2	13.1 µM	> 25 µM
OC1(c2cccc(C(F)(F)F)c2)CCN(c2ncnc3c2[nH]c2ccccc23)CC1	18 µM	> 25 µM

Compound	IC50 (WT cells)	IC50 [1]
CC(Oc1ccc2oc3ccccc3c2c1)C(=O)NC12CC3CC(CC(C3)C1)C2 (centres undefined)	9.61 µM	15.7 µM
CCCCCCCOC(=O)c1nc(Cl)c(Cl)c(N)c1Cl	18.9 µM	> 25 µM
COC(=O)c1c(NC(=O)CN2CCC3(O)CCCCC3C2c2ccc(F)cc2)sc(C)c1C (centres undefined)	14.4 µM	> 25 µM
Cc1nn(C(C)(C)C)c(OC(=O)c2ccc3c(c2)OCO3)c1Sc1ccccc1	8.28 µM	> 25 µM
COc1ccc(OCC(O)CNCc2ccco2)cc1 (centres undefined)	> 25 µM (inactive)	> 25 µM
Cc1cccn2c(=O)c(C=NCc3ccco3)c(Nc3ccc(SC(F)F)cc3)nc12	> 25 µM (inactive)	> 25 µM
CC1CCc2nc(NC(=O)CN3CCN(c4ccc(F)cc4)CC3)sc2C1 (centres undefined)	> 25 µM (inactive)	15.9 µM
O=C(NCc1ccco1)c1cccnc1-c1nc2ccccc2s1	> 25 µM (inactive)	> 25 µM
CSc1ccc(Cl)c(C(=O)NCCOc2cc(C)ccc2C(C)C)c1	12.9 µM	> 25 µM
N#Cc1ccc(NC(=O)Nc2ccc(Cl)cc2)cc1	9.83 µM	13.6 µM
CCCCc1ccc(NC(=S)Nc2ccc(Cl)c(S(=O)(=O)N(C)C)c2)cc1	9.48 µM	> 25 µM
C=CCSc1nnc(NC(=O)COc2ccc3ccccc3c2)s1	> 25 µM (inactive)	> 25 µM
CCc1cccc(CC)c1NC(=S)NCCc1c(C)[nH]c2ccc(C)cc12	9.59 µM	> 25 µM
CCOC(=O)c1c(C)n(C)c2cc(Br)c(C(=O)OC)cc12	> 25 µM (inactive)	> 25 µM
CC(C)(C)[C@@H]1C=C(C(=O)N2CCN(Cc3ccccc3)CC2)O[C@H](OCc2ccc(CO)cc2)C1	23.8 µM	> 25 µM
O=C(N=C1SCC(=O)N1c1ccccc1Cl)c1ccccc1	> 25 µM (inactive)	> 25 µM
Cc1cc(Cl)ccc1OCC(=O)Nc1nc(-c2cccs2)cs1	13.4 µM (inactive)	9.8 µM
O=C(CCc1ccccc1)Nc1nnc(-c2ccc3c(c2)CCCC3)o1	8.76 µM	> 25 µM
Cn1c(=O)c(NC2CCCCC2)c2c3c(cccc31)C(=O)c1ccccc1-2	11 µM	21.1 µM
c1ccc(CC2CCN(c3nnnn3-c3ccccc3)CC2)cc1	> 25 µM (inactive)	> 25 µM
Fc1ccc(-c2csc3ncnc(N4CCc5ccccc5C4)c23)cc1	9.26 µM	> 25 µM

Compound	IC50 (WT cells)	IC50 [1]
CC1Cc2ccccc2N1C(=O)Cn1c(=O)cc(O)c2ccccc21 (centres undefined)	> 25 µM (inactive)	> 25 µM
COCCn1c(CN2CCC(Cc3ccccc3)CC2)nc2c1c(=O)n(C)c(=O)n2C	> 25 µM (inactive)	> 25 µM
COc1ccc(NC(=O)c2oc3ccccc3c2NC(=O)COc2ccccc2OC)c(OC)c1	> 25 µM (inactive)	> 25 µM
Fc1ccc(Nc2nc(N/N=C/c3ccco3)nc(N3CCCCC3)n2)cc1	19.3 µM	> 25 µM
CC1(C)C=C2[C@H]3CC[C@@H]4[C@@]5(C)CCC(=O)C(C)(C)[C@@H]5CC[C@@]4(C)[C@]3(C)CC[C@@]2(C(=O)O)CC1	21.9 µM	> 25 µM
C/C(=N\N=C(/N)SC1CC(=O)N(c2cccc(Cl)c2)C1=O)c1cccs1 (centres undefined)	> 25 µM (inactive)	> 25 µM
CCS(=O)(=O)Nc1ccc(-c2cc(-c3ccccc3)c3cc(C)ccc3n2)cc1	7.26 µM	> 25 µM
COc1ccc(-c2noc(CSc3nnc(Cc4ccccc4)n3-c3ccc(Cl)cc3)n2)cc1	16.1 µM	> 25 µM
CCOC(=O)C1CCc2nc3ccccc3c(=O)n21 (centres undefined)	> 25 µM (inactive)	> 25 µM
Cc1cc(Nc2ccccc2)c2c([N+](=O)[O-])cc(C)c(C)c2n1	> 25 µM (inactive)	> 25 µM
COc1cc(NC(=S)NCCC(c2ccccc2)c2ccccc2)cc(OC)c1	4.78 µM	> 25 µM
CC1(C)CC(=O)c2c(O)cc(OCc3ccc([N+](=O)[O-])cc3)cc2O1	> 25 µM (inactive)	> 25 µM
CC(C)(C)c1cc(/C=N/O)cc(C(C)(C)C)c1O	> 25 µM (inactive)	> 25 µM
Cc1ccc(CNCC(O)(c2ccccc2)c2ccc(Cl)cc2)cc1 (centres undefined)	18.7 µM	24.9 µM
C(=N\Nc1nc(N2CCCCCC2)nc(N2CCCCCC2)n1)/c1ccccc1	9.35 µM	> 25 µM
Clc1ccc(C2=Nn3c(nnc3-c3cc(-c4ccccc4)n[nH]3)SC2)cc1	> 25 µM (inactive)	> 25 µM
O=C(COC(=O)CC(c1ccccc1)c1ccccc1)NCc1ccc(Cl)cc1	14.7 µM	> 25 µM
COCC(C)NC(=O)c1cc(-c2cccc(OC)c2)on1 (centres undefined)	> 25 µM (inactive)	> 25 µM
COc1ccc(NC(=S)N(CCCN2CCCC2)Cc2cccn2Cc2ccc(Cl)cc2)cc1Cl	10.9 µM	23.2 µM
Clc1ccc(CNc2nc(CN3CCOCC3)nc3scc(-c4ccccc4)c23)cc1	13.2 µM	17.9 µM
CCn1c(O)c(C(c2ccccn2)c2c(O)n(CC)c(=S)[nH]c2=O)c(=O)[nH]c1=S	> 25 µM (inactive)	> 25 µM

Compound	IC50 (WT cells)	IC50 [1]
COC(=O)CP(=O)(c1ccccc1)c1ccccc1	> 25 µM (inactive)	> 25 µM
CCOC(=O)c1c(C)n(-c2ccc(C)cc2)c2ccc(OCC(O)CNCC3CCCO3)cc12 (centres undefined)	15 µM	> 25 µM
Cc1ccc(SCC(=O)O/N=C(\N)c2cccc([N+](=O)[O-])c2)cc1	> 25 µM (inactive)	> 25 µM
COC(=O)c1ccc(CSc2nc3ccccc3c(=O)n2CC(C)C)o1	> 25 µM (inactive)	> 25 µM
c1ccc2c(c1)sc1nnnn12	> 25 µM (inactive)	> 25 µM
CN(C)c1ccc(C(CNS(=O)(=O)c2ccc(F)c(F)c2)c2c[nH]c3ccccc23)cc1 (centres undefined)	13.4 µM	> 25 µM
CC(C)=CCc1c2c(c3occ(-c4ccc(O)cc4)c(=O)c3c1O)C=CC(C)(C)O2	24.7 µM	> 25 µM
CCC(CC)C(=O)c1c[nH]c(C(=O)NCCCN2CCOCC2)c1	> 25 µM (inactive)	> 25 µM
O=C(CNCc1ccccc1Cl)Nc1ccccc1N1CCCCC1	13.2 µM	> 25 µM
c1ccc(-c2cn3c(n2)CCc2ccc4cccnc4c2-3)cc1	23.7 µM (inactive)	21.3 µM
Cc1ccc(OCc2n[nH]c(=S)n2-c2ccccc2)cc1C	24.4 µM	> 25 µM
N#Cc1c(-c2cccnc2)c2c([nH]c1=S)CCCC2	> 25 µM (inactive)	> 25 µM
N#C/C(=C\c1cccc(NC(=O)c2ccccc2Cl)c1)C(=O)NCCc1ccccc1	10.9 µM	> 25 µM
CC(=O)Nc1ccc(S(=O)(=O)N2CCSC2c2ccc(Cl)cc2)cc1 (centres undefined)	> 25 µM (inactive)	> 25 µM
COc1ccccc1N=Nc1nc(-c2ccccc2)c(-c2ccccc2)[nH]1	7.2 µM	17.4 µM
COc1ccc(NC(=O)CN(c2ccc(C)cc2)S(C)(=O)=O)c(OC)c1	> 25 µM (inactive)	> 25 µM
CC1CCCN(c2nc3c(c(=O)[nH]c(=O)n3C)n2Cc2ccccc2Cl)C1 (centres undefined)	17.4 µM	> 25 µM
COc1ccc(-c2nc3ccccc3s2)cc1O	> 25 µM (inactive)	> 25 µM
CSc1nncn1/N=C/c1ccc2c(c1)OCO2	> 25 µM (inactive)	> 25 µM

From PubChem BioAssay AID1361 (SRMLSC, 2008)
